Experimental data as given in ChEMBL document CHEMBL1134114, “Novel sulfonate derivatives: potent antimitotic agents” (Bioorg Med Chem Lett, 2001).

What was measured:
[1] = system: NCI-H460; test: Antiproliferative activity against human lung carcinoma NCI-H460 cell line (MDR(-))
[2] = system: HCT-15; test: Antiproliferative activity against human colon carcinoma HCT-15 cell line(MDR(+))
[3] = system: HCT-15; test: Antiproliferative activity against human colon carcinoma HCT-15 cell line(MDR(+)); Inactive at >10 uM
[4] = system: NCI-H460; test: Antiproliferative activity against human lung carcinoma NCI-H460 cell line (MDR(-)); Inactive at >10 uM
[5] = target: Tubulin alpha chain (Sus scrofa, UniProt P02550); test: Concentration inhibiting tubulin polymerization; type: functional
Tubulin alpha chain, sequence (P02550 whole entry, looked up): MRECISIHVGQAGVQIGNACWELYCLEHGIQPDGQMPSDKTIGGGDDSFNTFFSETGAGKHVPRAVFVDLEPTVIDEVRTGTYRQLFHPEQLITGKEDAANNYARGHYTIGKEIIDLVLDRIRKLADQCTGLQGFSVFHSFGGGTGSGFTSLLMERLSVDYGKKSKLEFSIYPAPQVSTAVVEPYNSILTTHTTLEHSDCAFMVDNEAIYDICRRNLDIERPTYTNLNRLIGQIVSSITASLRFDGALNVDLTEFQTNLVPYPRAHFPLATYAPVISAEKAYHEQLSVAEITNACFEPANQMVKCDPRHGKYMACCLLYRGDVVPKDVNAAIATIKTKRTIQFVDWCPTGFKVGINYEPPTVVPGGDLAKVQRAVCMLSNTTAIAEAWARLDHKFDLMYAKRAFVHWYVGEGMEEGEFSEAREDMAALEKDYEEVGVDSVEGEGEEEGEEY

SMILES	IC50 [1] [nM]	IC50 [2] [nM]	IC50 [3]	IC50 [4]	IC50 [5] [nM]
COc1ccc(S(=O)(=O)Oc2ccccc2NC(=O)c2ccc3ncccc3c2)cc1	> 10000	> 10000			
COc1ccc(S(=O)(=O)Oc2cccnc2NC(=O)c2ccncc2)cc1			Not Active	Not Active	
COc1ccc(S(=O)(=O)Oc2ccccc2C(=O)Nc2ccc(F)cc2)cc1			Not Active	Not Active	
COc1ccc(S(=O)(=O)Oc2ccccc2NC(=O)Nc2ccccc2)cc1	> 10000	> 10000			
COc1ccc(S(=O)(=O)Oc2ccccc2C(=O)Nc2ccccc2)cc1			Not Active	Not Active	
COc1ccc(S(=O)(=O)Oc2ccccc2NC(=O)c2cccnc2)cc1	> 6000	> 3000			
COc1ccc(S(=O)(=O)Oc2ccccc2NC(=O)c2ccnc3ccccc23)cc1	> 10000	> 10000			
COc1ccc(S(=O)(=O)Oc2ccccc2C(=O)Nc2ccncc2)cc1			Not Active	Not Active	
COc1ccc(S(=O)(=O)Oc2ccccc2C(=O)Nc2ccccc2C)cc1			Not Active	Not Active	
COc1ccc(S(=O)(=O)Oc2ccccc2NC(=O)c2ccc(N(C)C)cc2)cc1	> 10000	> 10000			
COc1ccc(S(=O)(=O)Oc2cccnc2NC(=O)c2ccco2)cc1			Not Active	Not Active	
COc1ccc(S(=O)(=O)Oc2ccccc2NC(=O)Oc2ccccc2)cc1	> 10000	> 10000			

The next lines start with the values.

IC50 [1] [nM]	IC50 [2] [nM]	IC50 [3]	IC50 [4]	IC50 [5] [nM]	SMILES
550	89				COc1ccc(S(=O)(=O)Oc2ccccc2NC(=O)c2ccc(F)cc2)cc1
720	600				COc1ccc(S(=O)(=O)Oc2ccccc2NC(=O)Cc2ccncc2)cc1
55	89			3730	COc1ccc(S(=O)(=O)Oc2ccccc2NC(=O)c2ccncc2)cc1
300	110			4060	COc1ccc(S(=O)(=O)Oc2ccccc2NC(=O)c2ccccn2)cc1
350	340			3100	COc1ccc(S(=O)(=O)Nc2cccnc2Nc2ccc(O)cc2)cc1 [ABT-751]
24	19				COc1ccc(S(=O)(=O)Oc2ccccc2NC(=O)c2ccco2)cc1
250	68			5200	COc1ccc(S(=O)(=O)Oc2ccccc2NC(=O)c2cnccn2)cc1
410	310				COc1ccc(S(=O)(=O)Oc2ccccc2NC(=O)c2ccccc2)cc1
130	56			3460	COc1ccc(S(=O)(=O)Oc2ccccc2/C=C/c2ccncc2)cc1
